{"source": "patent US20150224190A1", "about": "“Combination of a phosphoinositide 3-kinase inhibitor and an inhibitor of the IL-8/CXCR interaction” (priority 2012, published 2015)", "key": {"[1]": {"system": "JAK2/STAT5", "test": "JAK2/STAT5 phosphorylation in vivo models", "design": "species or system mice", "conditions": "after 8 hours of treatment", "protocol": "Cells for Western Blotting and ELISA were lysed with RIPA buffer. […]\nFor assessing pJAK2 levels, an ELISA assay (Tyr1007/1008, Invitrogen) was applied because of cross-reactivity of all pJAK2 antibodies tested. Interleukin-8 levels in RIPA lysates, cell culture supernatants and mouse tail vein blood plasma were measured by ELISA, as well (Biolegend). […]\nSCID/beige, SCID/NOD and Balb/c mice (Jackson Labs) were maintained under specific pathogen-free conditions and were used in compliance with protocols approved by the Institutional Animal Care and Use Committees of the FMI, which conform to institutional and national regulatory standards on experimental animal usage. […] Tumors were measured every 3 to 4 days with vernier calipers, and tumor volumes were calculated by the formula 0.5×(larger diameter)×(smaller diameter)^2. End point tumor sizes were analyzed for synergism using the formula AB/C<A/C×B/C, where C=tumor volume VHC, A=tumor volume compound 1, B=tumor volume compound 2, AB=tumor volume combination (Clarke, 1997). […]"}, "[2]": {"system": "IL-8", "test": "IL-8 levels in dissected primary triple-negative breast tumors or plasma of mice (ELISA)", "format": "in vivo, human", "conditions": "day 3 of treatment with 30 mg/kg BEZ235 vs vehicle", "protocol": "FIG. 5. BEZ235 treatment activates JAK2/STAT5 and IL-8 secretion in human primary triple-negative breast tumors Bar graphs showing IL-8 levels measured by ELISA in the dissected tumors from or in the plasma of mice at day 3 of treatment with 30 mg/kg BEZ235 or vehicle (VHC). Results represent means±SEM (n=3-4, *P<0.05). For assessing pJAK2 levels, an ELISA assay ([…]/1008, Invitrogen) was applied because of cross-reactivity of all pJAK2 antibodies tested. Interleukin-8 levels in RIPA lysates, cell culture supernatants and mouse tail vein blood plasma were measured by ELISA, as well (Biolegend). Cytokine arrays on cell culture supernatants and mouse tumor lysates were performed according the manufacture's protocol (R & D systems, Human and Mouse cytokine array panel A). […] Tumors were measured every 3 to 4 days with vernier calipers, and tumor volumes were calculated by the formula 0.5×(larger diameter)×(smaller diameter)^2. End point tumor sizes were analyzed for synergism using the formula AB/C<A/C×B/C, where C=tumor volume VHC, A=tumor volume compound 1, B=tumor volume compound 2, AB=tumor volume combination (Clarke, 1997)."}}}
{"smiles": "Cn1c(=O)n(-c2ccc(C(C)(C)C#N)cc2)c2c3cc(-c4cnc5ccccc5c4)ccc3ncc21", "note": "[COMPOUND A, 2-methyl-2-[4-(3-methyl-2-oxo-8-quinolin-3-yl-2,3-dihydro-imidazo[4,5-c]quinolin-1-yl)-phenyl]-propionitrile]", "values": [{"measurement": "pJAK2", "setting": "[1]", "value": "considerable upregulation"}, {"measurement": "pSTAT5", "setting": "[1]", "value": "considerable upregulation"}, {"measurement": "IL-8 secretion (IL-8 levels in tumors or plasma)", "setting": "[2]", "value": "activates"}]}
